Data taken from publication PMC9787607, “A Novel Protocol for the Synthesis of 1,2,4-Oxadiazoles Active against Trypanosomatids and Drug-Resistant Leukemia Cell Lines” (Tropical Medicine and Infectious Disease, 2022).

Assays:
Lucena-1 (K562/VCR) = assay: cells; type: cell-based, human; conditions: for RR (relative resistance) Lucena-1: (EC50 MDR cells)/(EC50 parental cells), Lucena-1/K562; for EC50: Homo sapiens, Lucena 1, 72 h, read-out: EC50 Lucena-1
Experimental: (§1) The CML cell lines K562, Lucena-1 (K562/VCR), and FEPS (K562/DNR) were cultured in RPMI-1640 medium supplemented with 25 mM HEPES and 2 g L^−1 sodium bicarbonate adjusted to pH 7.4 with NaOH, 100 U penicillin and […] streptomycin. All media were supplemented with 10% FBS. Dr. Vivian M. Rumjanek (Instituto de Bioquímica Médica, UFRJ, Brazil) kindly donated Lucena-1 and FEPS cells. Briefly, K562 cells were exposed to increasing concentrations of the chemotherapeutic drugs vincristine sulfate (VCR) and daunorubicin hydrochloride (DNR) (both from Sigma-Aldrich), as described previously. Lucena-1 (K562/VCR) and FEPS (K562/DNR) cells were cultured in the presence of either 60 nM VCR or 500 nM DNR to maintain the MDR phenotypes. For subcultures, cells were harvested every three days followed by washing with cold FBS, and a final concentration of 2 × 10^4 cells mL^−1 was maintained at 37 °C in 5% CO2.
(§2) Cell viability was determined by the 3-(4,5-dimethylthiazol-2-yl)-2,5-diphenyltetrazolium (MTT) colorimetric assay. CML cells (2 × 10^4 cells·mL^−1) were incubated for 72 h at 37 °C, followed by treatment with compounds at a range of concentrations (100–1 μM). Negative controls were prepared with 0.5% DMSO. An MTT salt solution was added to each well to a final concentration of 0.5 g·L^−1, and plates were incubated at 37 °C in 5% CO2 for 3 h. After centrifugation, 200 μL DMSO was added to dissolve the dark-blue formazan crystals formed by MTT reduction. Absorbance was measured on a microplate reader at 570 nm, which is directly proportional to formazan contents and indicative of living cells.
(§3) The percent cell or parasite viability was calculated by the formula: % viability = [(A − P)/(N − P)] × 100, A = absorbance of specific well, P = positive control, N = negative control. Determination of half-maximal effective concentrations (EC50), calculated by logarithmic regression, and significance analysis (p < 0.05), using ANOVA and Dunnett’s test, by GraphPad Prism 7.0 software. The results are expressed as the mean and standard deviation (SD) of three independent experiments.

FEPS (K562/DNR) = assay: MTT cytotoxicity to MDR CML cell line FEPS; type: cell-based, human; conditions: for RR (relative resistance) FEPS: (EC50 MDR cells)/(EC50 parental cells), FEPS/K562; for EC50: Homo sapiens, K562, 72 h, MTT
Experimental: as §1, §2, §3

K562 = assay: MTT cytotoxicity to CML cell line K562; type: cell-based; conditions: Homo sapiens, 72 h
Experimental: as §1, §2, §3

[1] = Cytotoxicity to LLC-MK2 host cells (MTT); type: cell-based; conditions: rhesus monkey, LLC-MK2 cells (kidney fibroblasts); screening at 50 μM, 120 h
Experimental: LLC-MK2 kidney fibroblasts (ATCC) and RAW 264.7 macrophages (ATCC) were cultivated in culture flasks in complete DMEM with 5% FBS at 37 °C in 5% CO2. The LLC-MK2 cell monolayer was detached by treatment with trypsin-EDTA 0.05% for 5 min at 37 °C. The RAW cell monolayer was detached mechanically. In both cases, the cells were centrifuged at 480× g for 6 min and resuspended in complete DMEM with 5% FBS, and the cell density was determined by counting with trypan-blue dye exclusion on Neubauer chambers before use.
LLC-MK2 cells were seeded in a 96-well microplate (1.0 × 10^4 cells per well) in complete DMEM with 5% FBS (120 µL per well). After incubation for 24 h at 37 °C in 5% CO2, the medium was renewed, and compounds were added at a range of concentrations in triplicate (50 μM or 100–1 μM). Untreated cells and cells treated with DMEM and 10% DMSO were used as negative and positive controls, respectively. Vehicle control containing DMEM and 0.3% DMSO was maintained for comparison. After incubation for 120 h at 37 °C in 5% CO2, the medium was renewed, and MTT salt solution in PBS was added (3.0 mM, 20 µL per well). After incubation for 2 h at 37 °C in 5% CO2, the supernatant was removed, and MTT formazan was dissolved in DMSO (150 µL per well). Absorbance was measured using a microplate reader at 570 nm.
as §3

[2] = tested on: T. cruzi amastigotes (Tulahuen C2C4 LacZ strain); assay: microbe, parasite or virus in culture; type: cell-based, Trypanosoma cruzi; conditions: Trypanosoma cruzi, TULAHUEN, LLC-MK2, 120 h, screening at 50 μM, 120 h, compared with untreated controls
Experimental: To a monolayer of 1.0 × 10^7 LLC-MK2 cells in a 150 cm^2 culture flask were added 5.0 × 10^7 trypomastigotes of T. cruzi expressing the […] (Tulahuen C2C4 LacZ) in complete DMEM with 2.5% FBS. The infection was allowed to occur for 24 h, the supernatant was removed, and the cell monolayer was washed with PBS. Complete DMEM with 2.5% FBS was renewed every 2 days up to the sixth day after infection. Trypomastigote forms were collected daily from the supernatant between days 7 and 12 after infection, enriched by differential centrifugation (1500× g for 10 min, 5580× g for 20 min), and resuspended in complete DMEM with 5% FBS. Parasite density was determined by counting the mobile trypomastigotes on Neubauer chambers before use.
. The medium was renewed, and trypomastigote forms of T. cruzi (Tulahuen C2C4 LacZ strain, 2.0 × 10^5 parasites per well) were added. After incubation for 24 h at 37 °C in 5% CO2, the cell monolayer was washed with PBS to remove noninternalized parasites. DMEM without phenol red and 5% FBS was added, and infected cells were treated with compounds at a range of concentrations in triplicate (50 μM or 100–1 μM). Untreated infected cells and noninfected LLC-MK2 cells were used as negative and positive controls, respectively. Vehicle control containing DMEM without phenol red and 0.3% DMSO was maintained for comparison. After incubation for 120 h at 37 °C in 5% CO2, a solution containing […] and 0.8% IGEPAL CA-630 in PBS (30 µL per well), followed by further incubation for 2 h at 37 °C in 5% CO2. Absorbance was measured using a microplate reader at 570 nm.
as §3

[3] = tested on: L. amazonensis promastigotes; assay: Anti-L. amazonensis promastigote assessment (MTT); type: cell-based; conditions: Leishmania amazonensis; 48 h, MTT; read-out: EC50 L. amazonensis promastigotes
Experimental: Promastigotes of L. amazonensis (MHOM/BR/75/Josefa) were cultured in Schneider’s insect medium (SIM) with 10% FBS. Parasites were harvested at the stationary growth phase for assessment against promastigotes and 24 h after cultures reached the stationary growth phase for infection assays. […]. Complete SIM media and amphotericin B (AmB) at 10 µM were used as negative and positive controls, respectively. A vehicle control containing SIM with 10% SFB media and 0.3% DMSO was maintained for comparison. The final volume of the experiment was 100 µL. After incubation for 48 h at 27 °C, MTT salt solution in PBS was added (3.0 mM, 20 µL per well). After incubation for 2 h at 27 °C, the MTT formazan was dissolved by adding 120 µL of solubilizing buffer (50% isopropanol, 40% acetate buffer pH 5.4, 10% Triton-X). Absorbance was measured using a microplate reader at 570 nm.
as §3

[4] = Cytotoxicity to BALB/c mouse total splenocytes (MTT); type: cell-based; conditions: male, total splenocytes (primary), 100 μM, 48 h, compared to the untreated control (Table S1)
Experimental: BALB/c mouse total splenocytes were harvested from male mice between 6–8 weeks old. After euthanasia, the spleens were removed and macerated in DMEM. After centrifugation, the cells were treated with hemolytic ACK buffer at 37 °C for 5 min. […] After incubation for 48 h at 37 °C in 5% CO2, cell viability was determined after the addition of 20 µL per well of a solution containing MTT salt (3.0 mM) and phenazine metasulphate (0.72 mM). After further incubation for 1 h at 37 °C, the medium was removed, and DMSO was added to dissolve the dark-blue formazan crystals formed by MTT reduction. Absorbance was measured on a microplate reader at 570 nm.
as §3

| Compound | RR (relative resistance) Lucena-1 (Lucena-1 (K562/VCR)) | EC50 (Lucena-1 (K562/VCR)) [µM] | RR (relative resistance) FEPS (FEPS (K562/DNR)) | EC50 (FEPS (K562/DNR)) [µM] | EC50 (K562) [µM] | viability at 120 h, 50 µM [1] [%] | viability at 50 µM [2] [%] | EC50 [3] [µM] | melting point [°C] | viability at 48 h, 100 µM [4] [%] |
| --- | --- | --- | --- | --- | --- | --- | --- | --- | --- | --- |
| C(=C\c1nc(-c2ccccc2)no1)/c1ccc2c(c1)OCCO2 [Compound 14, (E)-3-phenyl-5-[2-(3,4-ethylenedioxy-phenyl)vinyl]-1,2,4-oxadiazole] | <0.64 | 64 ± 3.2 | <0.41 | 41.1 ± 4.9 | > 100 | 84.5 ± 4.6 | 60.5 ± 3.8 | 92.5 ± 3.8 | 143 to 145 | 93.6 ± 5.9 |
| C(=C\c1nc(-c2ccccc2)no1)/c1ccc2c(c1)OCO2 [Compound 13, (E)-3-phenyl-5-[2-(3,4-methylenedioxy-phenyl)vinyl]-1,2,4-oxadiazole] | 0.50 | 46.5 ± 1.9 | 0.74 | 68.5 ± 8.7 | 92.3 ± 4.2 | 75.9 ± 1.3 | 72 ± 3.7 | > 100 | 157 to 159 | 98.8 ± 5.1 |
| COc1cccc(/C=C/c2nc(-c3cc(OC)c(OC)c(OC)c3)no2)c1 [Compound 22, (E)-3-(3,4,5-trimethoxyphenyl)-5-[2-(3-methoxyphenyl)-vinyl]-1,2,4-oxadiazole] | <0.73 | 72.9 ± 3 | <0.36 | 36.1 ± 12.4 | > 100 | 87.1 ± 1.7 | 66.1 ± 2.3 | > 100 | 117 to 119 | 63.5 ± 2.4 |
| COc1ccc(/C=C/c2nc(-c3ccccc3)no2)cc1 [Compound 11, (E)-3-phenyl-5-[2-(4-methoxyphenyl)vinyl]-1,2,4-oxadiazole] |  | > 100 | <0.59 | 58.8 ± 6.1 | > 100 | 77.4 ± 4 | 86.2 ± 5.3 | > 100 | 132 to 135 | 84.4 ± 2.9 |
| Fc1ccc(/C=C/c2nc(-c3ccccc3)no2)cc1 [Compound 18, (E)-3-phenyl-5-[2-(4-fluorophenyl)vinyl]-1,2,4-oxadiazole] | <0.59 | 59.9 ± 12.2 | <0.67 | 66.7 ± 9.6 | > 100 | 90.7 ± 4.3 | 82.8 ± 4.7 | > 100 |  | 102 ± 11.5 |
| O=[N+]([O-])c1ccc(/C=C/c2nc(-c3ccccc3)no2)cc1 [Compound 20, (E)-3-phenyl-5-[2-(4-nitrophenyl)vinyl]-1,2,4-oxadiazole] | 1.33 | 45.7 ± 4.3 | 1.35 | 46.4 ± 4.9 | 34.4 ± 7.4 | 78.2 ± 2.1 | 74.5 ± 5.4 | > 100 | 205 to 208 | 77.8 ± 4.2 |
| COc1cccc(/C=C/c2nc(-c3ccccc3)no2)c1 [Compound 10, (E)-3-phenyl-5-[2-(3-methoxyphenyl)vinyl]-1,2,4-oxadiazole] |  | > 100 |  | > 100 | > 100 | 86.6 ± 3.6 | 77.7 ± 6.3 | 50.8 ± 6.3 | 88 to 90 | 85.4 ± 4 |
| COc1cc(-c2noc(/C=C/c3ccco3)n2)cc(OC)c1OC [Compound 25, (E)-3-(3,4,5-trimethoxyphenyl)-5-[2-(fur-2-yl)vinyl]-1,2,4-oxadiazole] | 1.05 | 76.6 ± 6.1 | 0.74 | 53.7 ± 3.6 | 72.8 ± 9.1 | 73.5 ± 1.7 | 79.5 ± 5.5 | > 100 | 144 to 146 | 63.7 ± 4.7 |
| Clc1ccc(/C=C/c2nc(-c3ccccc3)no2)cc1 [Compound 19, (E)-3-phenyl-5-[2-(4-chlorophenyl)vinyl]-1,2,4-oxadiazole] | 0.92 | 43.4 ± 3.4 | >2.12 | > 100 | 47.1 ± 1.2 | 77.8 ± 0.9 | 83.4 ± 5.9 | > 100 |  | 90.5 ± 5.3 |
| C(=C\c1nc(-c2ccccc2)no1)/c1ccccc1 [Compound 9, (E)-3-phenyl-5-[2-phenylvinyl]-1,2,4-oxadiazole] |  | > 100 |  | > 100 | > 100 | 87.2 ± 4 | 87 ± 4.9 | 74.5 ± 4.9 |  | 102 ± 7.4 |
